In brackets after ≈: the same amount, converted by molar mass.
Tested on: Plasmodium falciparum
Test: In vitro inhibition of Plasmodium falciparum W2
Type: functional, organism-based

Structure (SMILES)	IC50
C[C@@]12CC[C@H]3CC[C@@](C)(c4ccccc4)C[C@]3(CO1)OO2	0.132 µg/mL (≈ 0.458 µM)
C[C@@H]1CC[C@H]2[C@@H](C)C(=O)O[C@@H]3O[C@@]4(C)CC[C@@H]1[C@]32OO4 [ARTEMISININ]	0.0042 µg/mL (≈ 0.0149 µM)
C[C@@]12CC[C@H]3CC[C@](C)(c4ccccc4)C[C@]3(CO1)OO2	0.013 µg/mL (≈ 0.0451 µM)

From ChEMBL document CHEMBL1152028, “The synthesis of 8,8-disubstituted tricyclic analogs of artemisinin” (Bioorg Med Chem Lett, 1997)
